# Results as given in patent US9040563B2, “Dual inhibitors of farnesyltransferase and geranylgeranyltransferase I” (H. Lee Moffitt Cancer Center and Research Institute, Inc., priority 2010, dated 2015).
# Key:
# hFTase = hFTase (Homo sapiens, UniProt P49354+P49356); assay: In vitro hFTase inhibition: incorporation of [3H]FPP into recombinant H-Ras-CVLS; format: biochemical; settings: for selectivity (ratio of GGTase-I to FTase IC50s): GGTase-I IC50 / hFTase IC50
# [1] = system: geranylgeranylation of Rap1A; assay: Whole cell inhibition of Rap1A processing (geranylgeranylation), immunoblot, oncogenic H-Ras-transformed NIH3T3 cells; format: cell-based, mouse; settings: Mus musculus; whole cells, oncogenic H-Ras-transformed NIH3T3; n = 3 unless stated; read-out: Rap1A processing IC50
# Experimental: (§1) In vitro inhibition assays for FTase and GGTase-I were conducted by measuring the incorporation of [^3H]FPP and [^3H]GGPP into recombinant H-Ras-CVLS and H-Ras-CVLL, respectively, as previously described (Vogt, et al., Protein geranylgeranylation, not farnesylation, is required for the G1 to S phase transition in mouse fibroblasts. Oncogene, 1996, 13, 1991-1999). The in vivo inhibition of farnesylation and geranylgeranylation was determined based on the level of inhibition by synthetic compounds of H-Ras and Rap1A processing, respectively (Sun, et al., Both farnesyltransferase and geranylgeranyltransferase I inhibitors are required for inhibition of oncogenic K-Ras prenylation but each alone is sufficient to suppress human tumor growth in nude mouse xenografts. Oncogene, 1998, 16, 1467-1473). […] The separated proteins were transferred to nitrocellulose and immunoblotted using an anti-Ras antibody (Y13-258) or an anti-Rap1A antibody (SantaCruz Biotechnology, Santa Cruz, Calif.), respectively. Antibody reactions were visualized using either peroxidase-conjugated goat anti-rat IgG or goat anti-rabbit IgG (Jackson ImmunoResearch, West Grove, Pa.) and an enhanced chemiluminescence detection system.
# (§2) Briefly, in vitro inhibition assays for hFTase and GGTase-I were carried out by measuring the incorporation of [^3H]FPP and [^3H]GGPP into recombinant H-Ras-CVLS and H-Ras-CVLL, respectively, as described previously (Vogt et al., Protein geranylgeranylation, not farnesylation, is required for G1 to S phase transition in mouse fibroblasts. Oncogene. 1996; 13:1991-1999). Whole cell inhibition of farnesylation and geranylgeranylation were determined based on the level of inhibition by synthetic compounds of H-Ras and Rap1A processing, respectively (Sun, et al., Both farnesyltransferase and geranylgeranyltransferase I inhibitors are required for inhibition of oncogenic K-Ras prenylation but each alone is sufficient to suppress human tumor growth in nude mouse xenografts. Oncogene. 1998; 16:1467-1473).
# farnesylation of H-Ras = assay: Whole cell inhibition of H-Ras processing (farnesylation), immunoblot, oncogenic H-Ras-transformed NIH3T3 cells; format: cell-based, mouse; settings: Mus musculus, NIH3T3, whole cells, oncogenic H-Ras-transformed NIH3T3; n = 3 unless stated; read-out: H-Ras processing IC50
# Experimental: as §1, §2
# GGTase-I = GGTase-I (Homo sapiens, UniProt P49354+P53609); assay: In vitro GGTase-I inhibition: incorporation of [3H]GGPP into recombinant H-Ras-CVLL; format: biochemical; settings: average of n = 3 unless stated, errors are standard deviations, read-out: GGTase-1 IC50
Compound,selectivity (ratio of GGTase-I to FTase IC50s) (hFTase),IC50 [1] [µM],IC50 (farnesylation of H-Ras) [µM],GGTase-I/FTase selectivity (hFTase; selectivity for hFTase over GGTase-I),IC50 (GGTase-I) [µM],"IC50 (hFTase; in vitro, average of three independent assays (n = 3) unless stated, errors are standard deviations) [µM]"
Cn1cnc(S(=O)(=O)N(CCN(Cc2cncn2C)c2ccc(C#N)cc2)CC(=O)NC(C)(C)C)c1 [1ae],7.1,> 10,> 10,–,–,–
C=C(Br)CN(CCN(Cc1cncn1C)c1ccc(C#N)cc1)S(=O)(=O)c1cn(C)cn1 [1ad],31,> 10,5.7 ± 1.5,–,–,–
"Cn1cnc(S(=O)(=O)N(CCN(Cc2cncn2C)c2ccc(C#N)cc2)CC2CC2)c1 [1aw, [N-(Cyclopropylmethyl), N-{2-[(4-cyanophenyl)-(3-methyl-3H-imidazol-4-ylmethyl)-amino]-ethyl}]1-methyl-1H-imidazole-4-sulfonamide]",>17,> 10,> 10,–,–,–
"Cn1cncc1CN(CCN(CC1CCCCC1)S(=O)(=O)c1ccccn1)c1ccc(C#N)cc1 [21a, N-(2-((4-cyanophenyl)((1-methyl-1H-imidazol-5-yl)methyl)amino)ethyl)-N-(cyclohexylmethyl)pyridine-2-sulfonamide]",1.5,6.2 ± 1.2,0.268 ± 0.212,–,–,–
C=C(C)CN(CCN(Cc1cncn1C)c1ccc(C#N)cc1)S(=O)(=O)c1cn(C)cn1 [1ac],5.3,> 10,> 10,about 5 fold,–,–
Cn1cnc(S(=O)(=O)N(CCN(Cc2cncn2C)c2ccc(C#N)cc2)Cc2ccncc2)c1 [1af],>139,> 10,> 10,–,–,–
"Cc1noc(C)c1CN(CCN(Cc1cncn1C)c1ccc(C#N)cc1)S(=O)(=O)c1cn(C)cn1 [compound 1al, [N-(3,5-Dimethyl-isoxazol-4-ylmethyl), N-{2-[(4-cyanophenyl)-(3-methyl-3H-imidazol-4-ylmethyl)-amino]-ethyl}]1-methyl-1H-imidazole-4-sulfonamide]",2.7,> 10,> 10,–,–,–
"Cc1nc(C)c(CN(CCN(Cc2cncn2C)c2ccc(C#N)cc2)S(=O)(=O)c2cn(C)cn2)s1 [1am, [N-(2,4-Dimethyl-thiazol-5-ylmethyl), N-{2-[(4-cyanophenyl)-(3-methyl-3H-imidazol-4-ylmethyl)-amino]-ethyl}]1-methyl-1H-imidazole-4-sulfonamide]",>1.6,> 10,> 10,–,–,–
"Cn1cncc1CN(CCN(CC1CCCCC1)S(=O)(=O)c1ccccn1)c1ccc(C#N)cn1 [21c, N-(2-((5-cyanopyridin-2-yl)((1-methyl-1H-imidazol-5-yl)methyl)amino)ethyl)-N-(cyclohexylmethyl)pyridine-2-sulfonamide]",2,19,0.288 ± 0.251,–,–,–
"Cn1cncc1CN(CCN(Cc1ccccc1)S(=O)(=O)C1CC1)c1ccc(C#N)cc1 [1c, N-Benzyl, N-{2-[(4-cyanophenyl)-(3-methyl-3H-imidazol-4-ylmethyl)-amino]-ethyl}cyclopropanesulfonamide]",65,–,–,–,5.5 ± 2.7,0.085 ± 0.0007
"Cn1cnc(S(=O)(=O)N(CCN(Cc2cncn2C)c2ccc(C#N)cc2)Cc2ccoc2)c1 [compound 1ah, [N-(Furan-3-ylmethyl), N-{2-[(4-cyanophenyl)-(3-methyl-3H-imidazol-4-ylmethyl)-amino]-ethyl}]1-methyl-1H-imidazole-4-sulfonamide]",19,> 10,0.65,–,–,–
C#CCN(CCN(Cc1cncn1C)c1ccc(C#N)cc1)S(=O)(=O)c1cn(C)cn1 [1aa],>14,> 10,6,–,–,–
Cn1cnc(S(=O)(=O)N(CCN(Cc2cncn2C)c2ccc(C#N)cc2)CC2CCN(c3ncccn3)CC2)c1 [compound 1az],>20,> 10,> 10,–,–,–
